From patent EP0034120A1, “Derivatives of phenoxy-phenoxy-carboxylic acids” (CIBA-GEIGY AG, priority 1980, dated 1981)

How the values were obtained:
Assay type in all cases: in vivo
Reis = experiment: Herbicidal action, pre-emergent application (greenhouse); parameters: key: 1 Pflanze abgestorben; 2-4 schwere Schädigung; 3: 2-4 schwere Schädigung; 2-4 schwere Schädigung; 5, 6 mittlere Schäden; 5, 6 mittlere Schäden; 7, 8 leichte Schäden; 7, 8 leichte Schäden; 9 Pflanze gedeiht normal, wie unbehandelte Kontrollpflanze; conditions: after 3 weeks
Description: (§1) wurde durchfolgende Versuche ermittelt: Herbizide Wirkung bei Applikation der Wirkstoffe vor dem Auflaufen der Pflanzen (pre-emergent) Im Gewächshaus werden Pflanzensamen in Blumentöpfe von ca. 11 cm Durchmesser gesät. […] Die Töpfe werden dann im Gewächshaus unter optimalen Bedingungen für das Pflanzenwachstum, regelmässiges Bewässern, einer Temperatur von 22-25°C und 50-70% relativer Luftfeuchtigkeit gehalten. Der Versuch wird nach 3 Wochen abgebrochen und der Zustand der Pflanzen gemäss dem folgenden EWRC (European Weed Research Councel) Bewertungsschema registriert: • 1 Pflanze abgestorben • 2-4 schwere Schädigung • 5, 6 mittlere Schäden • 7, 8 leichte Schäden • 9 Pflanze gedeiht normal, wie unbehandelte Kontrollpflanze.

Weizen = experiment: as above; parameters: key: 1 Pflanze abgestorben; 2-4 schwere Schädigung; 3: 2-4 schwere Schädigung; 2-4 schwere Schädigung; 5, 6 mittlere Schäden; 5, 6 mittlere Schäden; 7, 8 leichte Schäden; 7, 8 leichte Schäden; 9 Pflanze gedeiht normal, wie unbehandelte Kontrollpflanze; conditions: after 3 weeks
Description: as §1

abutilon sp = experiment: as above; parameters: key: 1 Pflanze abgestorben; 2-4 schwere Schädigung; 3: 2-4 schwere Schädigung; 2-4 schwere Schädigung; 5, 6 mittlere Schäden; 5, 6 mittlere Schäden; 7, 8 leichte Schäden; 7, 8 leichte Schäden; 9 Pflanze gedeiht normal, wie unbehandelte Kontrollpflanze; conditions: after 3 weeks
Description: as §1

amarantus retrofl. = experiment: as above; parameters: key: 1 Pflanze abgestorben; 2-4 schwere Schädigung; 3: 2-4 schwere Schädigung; 2-4 schwere Schädigung; 5, 6 mittlere Schäden; 5, 6 mittlere Schäden; 7, 8 leichte Schäden; 7, 8 leichte Schäden; 9 Pflanze gedeiht normal, wie unbehandelte Kontrollpflanze; conditions: after 3 weeks
Description: as §1

beta vulgaris = experiment: as above; parameters: key: 1 Pflanze abgestorben; 2-4 schwere Schädigung; 3: 2-4 schwere Schädigung; 2-4 schwere Schädigung; 5, 6 mittlere Schäden; 5, 6 mittlere Schäden; 7, 8 leichte Schäden; 7, 8 leichte Schäden; 9 Pflanze gedeiht normal, wie unbehandelte Kontrollpflanze; conditions: after 3 weeks
Description: as §1

chenopodium sp. = experiment: as above; parameters: key: 1 Pflanze abgestorben; 2-4 schwere Schädigung; 3: 2-4 schwere Schädigung; 2-4 schwere Schädigung; 5, 6 mittlere Schäden; 5, 6 mittlere Schäden; 7, 8 leichte Schäden; 7, 8 leichte Schäden; 9 Pflanze gedeiht normal, wie unbehandelte Kontrollpflanze; conditions: after 3 weeks
Description: as §1

chrysanthemum l. = experiment: as above; parameters: key: 1 Pflanze abgestorben; 2-4 schwere Schädigung; 3: 2-4 schwere Schädigung; 2-4 schwere Schädigung; 5, 6 mittlere Schäden; 5, 6 mittlere Schäden; 7, 8 leichte Schäden; 7, 8 leichte Schäden; 9 Pflanze gedeiht normal, wie unbehandelte Kontrollpflanze; conditions: after 3 weeks
Description: as §1

sinapis alba = experiment: as above; parameters: key: 1 Pflanze abgestorben; 2-4 schwere Schädigung; 3: 2-4 schwere Schädigung; 2-4 schwere Schädigung; 5, 6 mittlere Schäden; 5, 6 mittlere Schäden; 7, 8 leichte Schäden; 7, 8 leichte Schäden; 9 Pflanze gedeiht normal, wie unbehandelte Kontrollpflanze; conditions: after 3 weeks
Description: as §1

viola tricolor = experiment: as above; parameters: key: 1 Pflanze abgestorben; 2-4 schwere Schädigung; 3: 2-4 schwere Schädigung; 2-4 schwere Schädigung; 5, 6 mittlere Schäden; 5, 6 mittlere Schäden; 7, 8 leichte Schäden; 7, 8 leichte Schäden; 9 Pflanze gedeiht normal, wie unbehandelte Kontrollpflanze; conditions: after 3 weeks
Description: as §1

[1] = test system: Baumwollpflanzen der Sorte Deltapine; experiment: Desiccation and defoliation action on cotton; conditions: Aufwandmenge 0,6 kg/ha, nach 14 Tagen; only a few dried-up leaves left on the plant
From the text: Im Gewächshaus wurden Baumwollpflanzen der Sorte Deltapine in Tontöpfen angezogen. Nach abgeschlossener Kapselbildung wurden sie mit wässrigen Zubereitungen der Wirkstoffe in einer Aufwandmenge, die 1,2, 0,6 und 0,3 kg/ha im Feld entspräche, gespritzt. Unbehandelte Pflanzen wurden als Kontrolle belassen. Die Auswertung des Versuches erfolgte 3, 7 und 14 Tage nach Applikation der Versuchssubstanz durch Bestimmen des Grades an Defoliation (% abgefallene Blätter) und an Dessikation (% Austrocknung der an der Pflanze verbleibenden Blätter).

SMILES | Zustand der Pflanzen (EWRC Bewertungsschema) (Reis; Aufwandmenge 2 kg/ha) | Zustand der Pflanzen (EWRC Bewertungsschema) (Reis; Aufwandmenge 4 kg/ha) | Zustand der Pflanzen (EWRC Bewertungsschema) (Weizen; Aufwandmenge 2 kg/ha) | Zustand der Pflanzen (EWRC Bewertungsschema) (Weizen; Aufwandmenge 4 kg/ha) | Zustand der Pflanzen (EWRC Bewertungsschema) (abutilon sp; Aufwandmenge 2 kg/ha) | Zustand der Pflanzen (EWRC Bewertungsschema) (abutilon sp; Aufwandmenge 4 kg/ha) | Zustand der Pflanzen (EWRC Bewertungsschema) (amarantus retrofl.; Aufwandmenge 2 kg/ha) | Zustand der Pflanzen (EWRC Bewertungsschema) (amarantus retrofl.; Aufwandmenge 4 kg/ha) | Zustand der Pflanzen (EWRC Bewertungsschema) (beta vulgaris; Aufwandmenge 2 kg/ha) | Zustand der Pflanzen (EWRC Bewertungsschema) (beta vulgaris; Aufwandmenge 4 kg/ha) | Zustand der Pflanzen (EWRC Bewertungsschema) (chenopodium sp.; Aufwandmenge 2 kg/ha) | Zustand der Pflanzen (EWRC Bewertungsschema) (chenopodium sp.; Aufwandmenge 4 kg/ha) | Zustand der Pflanzen (EWRC Bewertungsschema) (chrysanthemum l.; Aufwandmenge 2 kg/ha) | Zustand der Pflanzen (EWRC Bewertungsschema) (chrysanthemum l.; Aufwandmenge 4 kg/ha) | Zustand der Pflanzen (EWRC Bewertungsschema) (sinapis alba; Aufwandmenge 2 kg/ha) | Zustand der Pflanzen (EWRC Bewertungsschema) (sinapis alba; Aufwandmenge 4 kg/ha) | Zustand der Pflanzen (EWRC Bewertungsschema) (viola tricolor; Aufwandmenge 2 kg/ha) | Zustand der Pflanzen (EWRC Bewertungsschema) (viola tricolor; Aufwandmenge 4 kg/ha) | Wirkung (Defoliation und Dessikation) [1]
CCOC(=O)C=CC(C)Oc1cc(Oc2ccc(C(F)(F)F)cc2Br)ccc1Cl (stereo not drawn) [compound 15] | 9 | 9 | 9 | 9 | 6 | 2 | 1 | 1 | 2 | 2 | 1 | 1 | 2 | 1 | 4 | 1 | 2 | 1 | –
COC(=O)CC(=O)C(C)Oc1cc(Oc2ccc(C(F)(F)F)cc2Cl)ccc1Cl (stereo not drawn) [compound 3, 4-[3'-(2"-Chlor-4"-trifluormethylphenoxy)-6'-chlorphen-oxy]-propanoylessigsäure-methylester] | 7 | 6 | 9 | 9 | 6 | 6 | 1 | 1 | 1 | 1 | 1 | 1 | 1 | 1 | 2 | 1 | 3 | 1 | 90%
CCNC(=O)CCC(C)Oc1cc(Oc2ccc(C(F)(F)F)cc2Cl)ccc1Cl (stereo not drawn) [compound 7] | 8 | 8 | 9 | 9 | 1 | 1 | 1 | 1 | 1 | 1 | 1 | 1 | 2 | 1 | 1 | 1 | 2 | 1 | 90%
CC(CCC(=O)O)Oc1cc(Oc2ccc(C(F)(F)F)cc2Cl)ccc1Cl (stereo not drawn) [compound 6] | 8 | 8 | 9 | 9 | 2 | 1 | 1 | 1 | 1 | 1 | 1 | 1 | 2 | 1 | 1 | 1 | 1 | 1 | –
CCOC(=O)CCC(C)Oc1cc(Oc2ccc(C(F)(F)F)cc2Br)ccc1Cl (stereo not drawn) [compound 16] | 9 | 9 | 9 | 9 | 5 | 1 | 2 | 1 | 1 | 1 | 1 | 1 | 1 | 1 | 1 | 1 | 2 | 1 | 90%
